Activity calls are given as the source filed them. The calls are words filed in the database; no cut-off is given here.
Tests used:
[1] = system: Staphylococcus aureus; experiment: Bactericidal activity against Staphylococcus aureus MTCC-96 at 2 times MIC incubated for 1 hrs in presence of ZnCl2 by time kill assay; format: functional, organism-based
[2] = system: Lipid bilayer; experiment: (§1) Induction of ionophore activity across EYPC:CHOL (8:2) large unilamellar vesicles assessed as transmembrane Zn2+ ion transport by measuring fluorescence intensity for CFZ dye at 5 to 20 uM preincubated for 3 mins followed by ZnCl2 addition and mesured after 7.5 mins by CFZ dye based fluorescence spectrophotometric analysis; details: filed as opener; dose 5-20 µM, time 10.5 min
[3] = system: Staphylococcus aureus; experiment: Disruption of membrane integrity in Staphylococcus aureus MTCC-96 assessed as increase in fluorescence intensity at 4 to 8 uM by PI staining based fluorescence analysis; format: functional, organism-based; details: dose 4-8 µM
[4] = system: Cell membrane; experiment: Induction of cell membrane depolarization in Staphylococcus aureus MTCC-96 assessed as change in fluorescence intensity at 3.13 uM by DiSC3-5 dye based fluorescence method; format: subcellular
[5] = system: Staphylococcus aureus; experiment: Antibacterial activity against Staphylococcus aureus MTCC-96 assessed as reduction in bacterial growth incubated for 14 to 16 hrs in presence of 100 to 400 uM ZnSO4 by microbroth dilution method; format: functional, organism-based; details: time 14-16 hrs
[6] = system: Staphylococcus aureus; experiment: Antibacterial activity against gentamicin-and methicillin-resistant Staphylococcus aureus ATCC 33592 assessed as reduction in bacterial growth incubated for 14 to 16 hrs in presence of 100 uM ZnCl2 by microbroth dilution method; format: functional; details: time 14-16 hrs
[7] = system: Staphylococcus aureus; experiment: Antibacterial activity against Staphylococcus aureus MTCC-96 assessed as fold reduction in bacterial growth incubated for 14 to 16 hrs in presence of 400 uM ZnCl2 by microbroth dilution method; format: functional; details: time 14-16 hrs
[8] = system: Lipid bilayer; experiment: as §1, with “anion” for “Zn2+ ion”, “measuring decrease in” for “measuring”, “HPTS” for “CFZ”, “10” for “5 to 20”; details: filed as opener, time 10.5 min
[9] = system: Staphylococcus aureus; experiment: Bactericidal activity against Staphylococcus aureus MTCC-96 at 2 times MIC incubated for 1 hrs by time kill assay; format: functional, organism-based
[10] = system: Lipid bilayer; experiment: as §1, with “cation” for “Zn2+ ion”, “measuring decrease in” for “measuring”, “HPTS” for “CFZ”, “dye” for “dye at 5 to 20 uM”, “MnCl2” for “ZnCl2”; details: time 10.5 min
[11] = system: Lipid bilayer; experiment: as §1, with “cation” for “Zn2+ ion”, “measuring decrease in” for “measuring”, “HPTS” for “CFZ”, “dye” for “dye at 5 to 20 uM”, “NaCl” for “ZnCl2”; details: time 10.5 min
[12] = system: Staphylococcus aureus; experiment: Antibacterial activity against Staphylococcus aureus MTCC-96 assessed as reduction in bacterial growth incubated for 14 to 16 hrs in presence of 100 to 400 uM MgCl2 by microbroth dilution method; format: functional, organism-based; details: time 14-16 hrs
[13] = system: Staphylococcus aureus; experiment: Antibacterial activity against gentamicin-and methicillin-resistant Staphylococcus aureus ATCC 33592 assessed as reduction in bacterial growth incubated for 14 to 16 hrs in presence of 200 uM ZnCl2 by microbroth dilution method; format: functional; details: time 14-16 hrs
[14] = system: Erythrocyte; experiment: Hemolytic activity in human Red blood cells assessed as hemolysis rate at 1.6 to 50 uM incubated for 1 to 24 hrs in presence of ZnCl2 by absorbance based analysis; format: toxicity, cell-based; details: dose lower 1.6 µM, time lower 1 hrs, dose upper 50 µM, time upper 24 hrs
[15] = system: Lipid bilayer; experiment: Induction of ionophore activity across EYPC:CHOL (8:2) large unilamellar vesicles assessed as transmembrane Zn2+ ion transport by measuring decrease in fluorescence intensity for HPTS dye at 25 uM preincubated for 3 mins followed by 1 to 25 mM ZnCl2 addition and mesured after 7.5 mins by HPTS dye based fluorescence spectrophotometric analysis; details: filed as opener, time 10.5 min

`FC(F)(F)c1cc(NC(=S)Nc2cccc3ccc(-n4cnc5ccccc54)nc23)cc(C(F)(F)F)c1` was tested, and the Activity [1] was “Active”, the Activity [2] was “Dose-Dependent Effect” and the Activity [3] was “inactive”. The Activity [4] was “inactive”, the Activity [5] was “Active” and the MIC [6] was 3.13 µM. For the same compound, the “fold change (FC)” value [7] was 6.65, the Activity [8] was “Active” and the Activity [9] was “Active”. The Activity [10] was “inactive”, the Activity [11] was “inactive” and the Activity [12] was “inactive”. For the same compound, the MIC [13] was 2 µM, the Activity [14] was “Non-Toxic” and the Activity [15] was “Active”.
